Test results reported in patent US4471131A, “Novel silyl esters of N-phosphonomethylglycine” (Monsanto Company, priority 1983, dated 1984).

Columns and labels:
Experiment in all cases: post-emergence herbicidal activity, greenhouse
Format in all cases: in vivo
Sugar Beet = details: Table III, formulated in anhydrous tetrahydrofuran
Description: (§1) A good grade of top soil is placed in aluminum pans having holes in the bottom and compacted to a depth of 0.95 to 1.27 cm. from the top of the pan. A predetermined number of seeds of each of several dicotyledonous and moncotyledonous annual plant species and/or vegetative propagules for the perennial plant species were placed on the soil and pressed into the soil surface. The seeds and/or vegetative propagules are covered with soil and leveled. The pans are then placed on a sand bench in the greenhouse and watered from below as needed. After the plants reach the desired age (two to three weeks), each pan, except for the control pans, is removed individually to a spraying chamber and sprayed by means of an atomizer at the rates noted. In the spray solution is an amount of an emulsifying agent mixture to give a spray solution or suspension which contains about 0.4% by weight of the emulsifier. The spray solution or suspension contains a sufficient amount of the candidate chemical in order to give application rates corresponding to those set forth in the tables. The pans were returned to the greenhouse and watered as before and the injury to the plants as compared to the control is observed at approximately two and four weeks and the results recorded. In the tables, WAT means "weeks after treatment."
(§2) The post-emergent herbicidal activity index used in Tables II and III is as follows:
(§3) The plant species utilized in these tests are identified by letter in accordance with the following legend: […]

Common Lambsquarters = details: formulated in anhydrous tetrahydrofuran
Description: as §1, §2, §3

Large Crabgrass = details: Table III, formulated in anhydrous tetrahydrofuran
Description: as §1, §2, §3

Quackgrass = details: Table II, formulated in anhydrous tetrahydrofuran
Description: as §1, §2, §3

Soybean = details: Table III, formulated in anhydrous tetrahydrofuran
Description: as §1, §2, §3

Morningglory = details: formulated in anhydrous tetrahydrofuran
Description: as §1, §2, §3

Yellow Nutsedge = details: Table II, formulated in anhydrous tetrahydrofuran
Description: as §1, §2, §3

Canada Thistle = details: Table II, formulated in anhydrous tetrahydrofuran
Description: as §1, §2, §3

Cocklebur = details: formulated in anhydrous tetrahydrofuran
Description: as §1, §2, §3

Barnyardgrass = details: Table II, formulated in anhydrous tetrahydrofuran
Description: as §1, §2, §3

For CCCCOC(=O)CNCP(=O)(O)O[Si](C)(C)C(C)(C)C [Ex. 3, Glycine, N-((([(1,1-Dimethylethyl)Dimethylsilyl]oxy)Hydroxyphosphinyl)Methyl)-, Butyl Ester], the “Plant Response Index (M)” value (Sugar Beet; 2 WAT, 1.1 kg/h) was 1 (25-49% inhibition), the “Plant Response Index (M)” value (Sugar Beet; 2 WAT, 5.6 kg/h) was 2 (50-74% inhibition) and the “Plant Response Index (M)” value (Sugar Beet; 2 WAT, .28 kg/h) was 0 (0-24% inhibition). The “Plant Response Index (M)” value (Sugar Beet; 4 WAT, 1.1 kg/h) was 1 (25-49% inhibition), the “Plant Response Index (M)” value (Sugar Beet; 4 WAT, 5.6 kg/h) was 3 (75-99% inhibition) and the “Plant Response Index (M)” value (Sugar Beet; 4 WAT, .28 kg/h) was 0 (0-24% inhibition). The “Plant Response Index (E)” value (Common Lambsquarters; Table II, 2 WAT, 5.6 kg/h) was 3 (75-99% inhibition), the “Plant Response Index (E)” value (Common Lambsquarters; Table II, 2 WAT, 11.2 kg/h) was 3 (75-99% inhibition) and the “Plant Response Index (E)” value (Common Lambsquarters; Table II, 4 WAT, 5.6 kg/h) was 4 (100% inhibition). The “Plant Response Index (E)” value (Common Lambsquarters; Table II, 4 WAT, 11.2 kg/h) was 4 (100% inhibition), the “Plant Response Index (E)” value (Common Lambsquarters; Table III, 2 WAT, 1.1 kg/h) was 3 (75-99% inhibition) and the “Plant Response Index (E)” value (Common Lambsquarters; Table III, 2 WAT, 5.6 kg/h) was 4 (100% inhibition). For the same compound, the “Plant Response Index (E)” value (Common Lambsquarters; Table III, 2 WAT, .28 kg/h) was 3 (75-99% inhibition), the “Plant Response Index (E)” value (Common Lambsquarters; Table III, 4 WAT, 1.1 kg/h) was 3 (75-99% inhibition) and the “Plant Response Index (E)” value (Common Lambsquarters; Table III, 4 WAT, 5.6 kg/h) was 4 (100% inhibition). The “Plant Response Index (E)” value (Common Lambsquarters; Table III, 4 WAT, .28 kg/h) was 4 (100% inhibition), the “Plant Response Index (T)” value (Large Crabgrass; 2 WAT, 1.1 kg/h) was 3 (75-99% inhibition) and the “Plant Response Index (T)” value (Large Crabgrass; 2 WAT, 5.6 kg/h) was 4 (100% inhibition). For the same compound, the “Plant Response Index (T)” value (Large Crabgrass; 2 WAT, .28 kg/h) was 3 (75-99% inhibition), the “Plant Response Index (T)” value (Large Crabgrass; 4 WAT, 1.1 kg/h) was 4 (100% inhibition) and the “Plant Response Index (T)” value (Large Crabgrass; 4 WAT, 5.6 kg/h) was 4 (100% inhibition). The “Plant Response Index (T)” value (Large Crabgrass; 4 WAT, .28 kg/h) was 4 (100% inhibition), the “Plant Response Index (H)” value (Quackgrass; 2 WAT, 5.6 kg/h) was 0 (0-24% inhibition) and the “Plant Response Index (H)” value (Quackgrass; 2 WAT, 11.2 kg/h) was 3 (75-99% inhibition). The “Plant Response Index (H)” value (Quackgrass; 4 WAT, 5.6 kg/h) was 1 (25-49% inhibition), the “Plant Response Index (H)” value (Quackgrass; 4 WAT, 11.2 kg/h) was 3 (75-99% inhibition) and the “Plant Response Index (L)” value (Soybean; 2 WAT, 1.1 kg/h) was 2 (50-74% inhibition). For the same compound, the “Plant Response Index (L)” value (Soybean; 2 WAT, 5.6 kg/h) was 2 (50-74% inhibition), the “Plant Response Index (L)” value (Soybean; 2 WAT, .28 kg/h) was 1 (25-49% inhibition) and the “Plant Response Index (L)” value (Soybean; 4 WAT, 1.1 kg/h) was 1 (25-49% inhibition). The “Plant Response Index (L)” value (Soybean; 4 WAT, 5.6 kg/h) was 2 (50-74% inhibition), the “Plant Response Index (L)” value (Soybean; 4 WAT, .28 kg/h) was 0 (0-24% inhibition) and the “Plant Response Index (D)” value (Morningglory; Table II, 2 WAT, 5.6 kg/h) was 1 (25-49% inhibition). The “Plant Response Index (D)” value (Morningglory; Table II, 2 WAT, 11.2 kg/h) was 1 (25-49% inhibition), the “Plant Response Index (D)” value (Morningglory; Table II, 4 WAT, 5.6 kg/h) was 1 (25-49% inhibition) and the “Plant Response Index (D)” value (Morningglory; Table II, 4 WAT, 11.2 kg/h) was 2 (50-74% inhibition). The “Plant Response Index (D)” value (Morningglory; Table III, 2 WAT, 1.1 kg/h) was 2 (50-74% inhibition), the “Plant Response Index (D)” value (Morningglory; Table III, 2 WAT, 5.6 kg/h) was 2 (50-74% inhibition) and the “Plant Response Index (D)” value (Morningglory; Table III, 2 WAT, .28 kg/h) was 1 (25-49% inhibition). For the same compound, the “Plant Response Index (D)” value (Morningglory; Table III, 4 WAT, 1.1 kg/h) was 2 (50-74% inhibition), the “Plant Response Index (D)” value (Morningglory; Table III, 4 WAT, 5.6 kg/h) was 2 (50-74% inhibition) and the “Plant Response Index (D)” value (Morningglory; Table III, 4 WAT, .28 kg/h) was 1 (25-49% inhibition). For the same compound, the “Plant Response Index (G)” value (Yellow Nutsedge; 2 WAT, 5.6 kg/h) was 1 (25-49% inhibition), the “Plant Response Index (G)” value (Yellow Nutsedge; 2 WAT, 11.2 kg/h) was 1 (25-49% inhibition) and the “Plant Response Index (G)” value (Yellow Nutsedge; 4 WAT, 5.6 kg/h) was 2 (50-74% inhibition). The “Plant Response Index (G)” value (Yellow Nutsedge; 4 WAT, 11.2 kg/h) was 2 (50-74% inhibition), the “Plant Response Index (A)” value (Canada Thistle; 2 WAT, 5.6 kg/h) was 1 (25-49% inhibition) and the “Plant Response Index (A)” value (Canada Thistle; 2 WAT, 11.2 kg/h) was 1 (25-49% inhibition). The “Plant Response Index (A)” value (Canada Thistle; 4 WAT, 5.6 kg/h) was 1 (25-49% inhibition), the “Plant Response Index (A)” value (Canada Thistle; 4 WAT, 11.2 kg/h) was 2 (50-74% inhibition) and the “Plant Response Index (B)” value (Cocklebur; Table II, 2 WAT, 5.6 kg/h) was 1 (25-49% inhibition). For the same compound, the “Plant Response Index (B)” value (Cocklebur; Table II, 2 WAT, 11.2 kg/h) was 1 (25-49% inhibition), the “Plant Response Index (B)” value (Cocklebur; Table II, 4 WAT, 5.6 kg/h) was 1 (25-49% inhibition) and the “Plant Response Index (B)” value (Cocklebur; Table II, 4 WAT, 11.2 kg/h) was 2 (50-74% inhibition). For the same compound, the “Plant Response Index (B)” value (Cocklebur; Table III, 2 WAT, 1.1 kg/h) was 2 (50-74% inhibition), the “Plant Response Index (B)” value (Cocklebur; Table III, 2 WAT, 5.6 kg/h) was 2 (50-74% inhibition) and the “Plant Response Index (B)” value (Cocklebur; Table III, 2 WAT, .28 kg/h) was 2 (50-74% inhibition). For the same compound, the “Plant Response Index (B)” value (Cocklebur; Table III, 4 WAT, 1.1 kg/h) was 1 (25-49% inhibition), the “Plant Response Index (B)” value (Cocklebur; Table III, 4 WAT, 5.6 kg/h) was 3 (75-99% inhibition) and the “Plant Response Index (B)” value (Cocklebur; Table III, 4 WAT, .28 kg/h) was 1 (25-49% inhibition). For the same compound, the “Plant Response Index (K)” value (Barnyardgrass; 2 WAT, 5.6 kg/h) was 2 (50-74% inhibition), the “Plant Response Index (K)” value (Barnyardgrass; 2 WAT, 11.2 kg/h) was 2 (50-74% inhibition) and the “Plant Response Index (K)” value (Barnyardgrass; 4 WAT, 5.6 kg/h) was 2 (50-74% inhibition). The “Plant Response Index (K)” value (Barnyardgrass; 4 WAT, 11.2 kg/h) was 3 (75-99% inhibition).
